Tests used:
Na^+-K^+-ATPase = assay: Activity-dependent change of Cli after postsynaptic action potential trains in CA1 pyramidal neurons; type: cell-based, rat; conditions: in the presence of DHO 10 μM; 20 Hz, 2.5 min trains; P=0.27
Experimental: The GABAB receptor antagonist CGP 55845A (1 μM) was included in the bath for most experiments. Bumetanide was stored as a 50 mM stock solution in ethanol at 4° C. and then diluted to 10 μM in ACSF. Dihydroouabain (10 μM) was diluted into ACSF and bath applied.
Action potentials in current-clamped neurons was invoked by injecting depolarizing current pulses (1.5 ms, 2 nA) at 20 Hz for 2.5 min.
Persistent increases in Cli and the GABA reversal potential have been observed following trains of action potentials. Action potential trains have long been known to cause long-lasting increases in the activity of Na^+—K^+-ATPase and corresponding changes in RMP. If NKCCl-mediated transport were thermodynamically limited, then the changes in ECl observed following action potential trains could be due to altered Na^+ and K^+ transmembrane gradients. Without being bound by any theory, it is believed that of the two cations, Nai would be most labile and would have the most influence on the Cli at which NKCCl-mediated transport reached equilibrium. Steady-state ECl and Cl^− transport kinetics were measured before and after a 20 Hz, 2.5 minute train of action potentials. […]
FIGS. 10A-10D show activity-dependent increases in Cli. FIG. 10A is a graph showing that following a train of action potentials in the recorded cell (20 Hz, 2.5 min), Cli reached a new steady state. […]

KA-induced rat seizures = assay: Kainic acid (KA) induced seizures in rat pups, EEG recording in vivo; conditions: KA 2 mg/kg s.c.
Excerpt: Kainic Acid (KA) is a commonly used agent for creating an in vivo neonatal-like seizure model in rats for study. It is believed that this seizure model closely parallels human neonatal seizure disorders. KA, a glutamate receptor agonist, was used to induce neonatal-like seizures in postnatal (P) 7-12 day male Wistar rats. The rats were equipped with electrodes including recording and reference electrodes by standard means. There are many known methods for measuring parameters of seizures, in this example electrical signals were digitized using an analogue-to-digital converter for example a DigiData 1322A (Axon Instuments USA). The sampling interval can vary depending on the desired target interval. In this example, the sampling interval per signal was 200 […]s (5 kHz). For data analysis, several computer programs exist for capturing and analyzing these seizure parameters such as Clamp 9.2 (Axon Instruments, USA) and Origon 5.0 (Microcal Software, USA) used here. Interictal spikes were determined by typical means utilizing band-pass filtered raw data.
Many known methods exist for analyzing the power levels of different frequency components in a signal such as a signal recorded from a seizure episode. For example, power spectrum analysis can be performed after applying a Hamming window function. Unless otherwise indicated, power was calculated in 1-2 min time windows by integrating the root mean square value of the signal in frequency bands from 1 to 100 Hz (EEC band) and from 200 to 500 Hz (fast ripple band).
Pharmaceutical compositions of the present invention can be administered to seizure-induced rats to test the seizure modulatory properties of the pharmaceutical composition. In one exemplary method, the inhibition of NKCCl and its affect on seizures in rat pups was studied. Two days after implantation of recording electrodes, six P9-P10 rats received subcutaneous injection of KA (2 mg/kg) and six P9-10 control rats received subcutaneous 0.9% sodium chloride saline injections. 10-20 minutes after KA injection regular pattern of behavioral signs started, involving scratching-like movements of the hindpaws, loss of balance and turning on the side. Recurrent interictal and ictal electroencephalographic patterns occurred 20-80 minutes (61.2±10.4 min; mean±se) after KA injection in all rats from this experimental group (FIG. 4B). […] Interictal spikes usually occurred synchronously in the left and right hemispheres. Frequency of the interictal spikes was 1.43±0.06 Hz (n=23 seizures in 6 rats). Before transition to ictal patterns, interictal spikes were usually followed by fast ripple (100-500 Hz) and gamma-frequency oscillations (20-50 Hz). Tonic-clonic seizures were the most common type of seizures induced by KA in P9-10 rats. Ictal-tonic phase lasted 12.6±1.4 s (16 seizures in 5 rats). Population spikes of 18.7±1.2 Hz were characteristic of the tonic phase of KA-induced seizures (FIG. 4C). Tonic discharges were followed by clonic bursts (FIG. 4C). Large amplitude population spikes followed by 100-200 Hz ripples and 200-1200 ms gamma frequency after discharges characterized the clonic bursts. The mean duration of the clonic phase was 36.4±5 s (25 seizures in 6 rats). The ictal patterns were followed by postictal depression (FIG. 4 B-4C). During ictal EEG activity, motor activity consisted of scratching, jerky movements, turning on the side or on the back and frequent tail shaking. Five to ten recurrent seizures with an average interval 379±24.5 s were followed by periodic epileptiform discharges (PLEDs) (FIG. 4D).
In one exemplary experiment, a pharmaceutical composition of the present invention comprising bumetanide was compared to phenobarbital for effects on KA-induced rat seizures. Two days after implantation of recording electrodes, twenty-two P9-12 age-matched rats received subcutaneous injection with KA (2 mg/kg). […]

[1] = system: low-Mg^2+ induced recurrent seizures in the intact hippocampus; assay: Low-Mg2+ ACSF induced recurrent seizures in the intact hippocampus in vitro; type: cell-based, rat; conditions: phenobarbital 100 μM
Excerpt: High expression level of the Na^+ K^+-2Cl^− (NKCCl) co-transporter in immature neurons causes the accumulation of chloride ions and a depolarized Cl^− equilibrium potential (ECl). This is linked to a higher seizure propensity and poor EEG response in neonates to the barbiturates and benzodiazepines, conventional anticonvulsant drugs that target Cl^−-permeable GABAA-receptor (GABAA-R) operated channels. […] Recurrent ictal-like seizures were induced by low-Mg^+ ACSF in intact hippocampal preparations in vitro. […] Bumetanide decreased both seizure frequency and seizure power.
FIGS. 11A-11C are graphs of low-Mg^2+πinduced recurrent seizures in the intact hippocampus in vitro. […] First and last seizures from 5 hour recording are shown on an expanded time scale. Right, corresponding power spectra in the 0.1-1000 Hz frequency band. […] Summary data are taken from ten hippocampi. […] Power of the first seizure in each recording was considered as 100%. Data are taken from 18 recordings in 10 preparations from P4-6 rats.
FIGS. 12A-12C are graphs showing low efficiency of phenobarbital in neonatal seizures. FIG. 12A is a graph showing extracellular field potential recording in the CA3 pyramidal cell layer in the intact hippocampus of a P5 rat. Continuous application of low-Mg^2+ ACSF induced recurrent tonic-clonic seizures. […] The right portion corresponds to power spectra in the 0.1-1000 Hz frequency range. […] Data are from ten experiments that were combined. FIG. 12C is a graph showing power of recurrent seizures before, during and after phenobarbital application. Power of the first seizure in each recording was considered as 100%. Seizures were not depressed by phenobarbital indicating its low efficiency.
FIGS. 13A-13C are graphs showing that alteration of Cl^−-transport by bumetanide enhanced efficacy of phenobarbital in neonatal seizures. FIG. 13A is a graph of extracellular field potential recording in the CA3 pyramidal cell layer in the intact hippocampus of a P5 rat. Application of low-Mg^2+ ACSF induced recurrent seizures. […] These are shown on an expanded time scale. The right portion of FIG. 13A is a power spectra of extracellular field potential activity before and during application of drugs. FIG. 13B is a graph showing inter-seizure intervals before, during and after application of drugs. In 75% of experiments seizures were abolished (ISI>120 min) by simultaneous application of phenobarbital and bumetanide. FIG. 13C is a graph showing power of recurrent seizures before, during and after simultaneous application of phenobarbital and bumetanide. Power of the first seizure in each recording was considered as 100%. Seizures were depressed by combination of drugs.
FIGS. 14A and 14B are graphs showing alteration of Cl^−-transport for early-life seizure therapy. […]

[2] = P9-12 rats, phenobarbital 25 mg/kg or bumetanide 0.1-0.2 mg/kg i.p.

Row | Compound | effect of action potential trains on Cli (Na^+-K^+-ATPase) | animals with recurrent ictal-clonic activity / EEG clonic seizures (KA-induced rat seizures; P9-12 rats, drug i.p. 10 min after KA (phenobarbital 25 mg/kg; bumetanide 0.1-0.2 mg/kg), 6 rats per group) [%] | frequency of the ictal-tonic discharges (KA-induced rat seizures; P9-12 rats, phenobarbital 25 mg/kg i.p.) [Hz] | duration of ictal-clonic phase (KA-induced rat seizures; [2]) [s] | duration of ictal-tonic phase (KA-induced rat seizures; [2]) [s] | frequency of interictal spikes (KA-induced rat seizures; [2]) [Hz] | mean duration of single ictal episode (seizure including interictal and ictal phases) (KA-induced rat seizures; [2]) [s] | mean interval between seizures (KA-induced rat seizures; [2]) [s] | rats with ictal-tonic pattern / tonic-clonic seizures (KA-induced rat seizures; [2]) [%] | increase of power of EEG activity in the 20 minute window following seizure onset (KA-induced rat seizures; compared to pre-ictal baseline, phenobarbital 25 mg/kg or bumetanide 0.1-0.2 mg/kg i.p., saline control 444.7±136.3%) [%] | experiments in which seizure frequency was significantly reduced [1] [%] | seizure power ([1]; bumetanide 10 μM or both, 120 min application, intact hippocampus of P4-6 rats)
1 | C[C@@H]1O[C@@H](O[C@H]2C[C@@H](O)[C@]3(CO)[C@H]4[C@H](O)C[C@]5(C)[C@@H]([C@@H]6COC(=O)C6)CC[C@]5(O)[C@@H]4CC[C@]3(O)C2)[C@H](O)[C@H](O)[C@H]1O [DHO, dihydroouabain] | no effect | – | – | – | – | – | – | – | – | – | – | –
2 | CCC1(c2ccccc2)C(=O)NC(=O)NC1=O [phenobarbital] | – | 100 | 14±3 | 12 ± 1.1 | 5.2 ± 1.4 | 1.56 ± 0.08 | 27.4 ± 2.6 | 241.3 ± 45.8 | 33.3 | 248±40.8 | 70 | no significant effect

From US20070043034A1, “Chlorine Ion Uptake Modulators and Uses Thereof” (priority 2005, published 2007)
